Test results as given in US20110152166A1, “METHOD OF MODULATION OF PROTEIN PHOSPHORYLATION-DEPENDENT CONFORMATIONAL TRANSITIONS WITH LOW MOLECULAR WEIGHT COMPOUNDS” (priority 2006, published 2011).
Ends that are not written are not given here.

Tests used:
PDK1 = target: T1, PDK1 (Homo sapiens, UniProt O15530); settings: in the presence of PIFtide (Biondi et al., 2000); cited from earlier work
T1 sequence (O15530 1-556): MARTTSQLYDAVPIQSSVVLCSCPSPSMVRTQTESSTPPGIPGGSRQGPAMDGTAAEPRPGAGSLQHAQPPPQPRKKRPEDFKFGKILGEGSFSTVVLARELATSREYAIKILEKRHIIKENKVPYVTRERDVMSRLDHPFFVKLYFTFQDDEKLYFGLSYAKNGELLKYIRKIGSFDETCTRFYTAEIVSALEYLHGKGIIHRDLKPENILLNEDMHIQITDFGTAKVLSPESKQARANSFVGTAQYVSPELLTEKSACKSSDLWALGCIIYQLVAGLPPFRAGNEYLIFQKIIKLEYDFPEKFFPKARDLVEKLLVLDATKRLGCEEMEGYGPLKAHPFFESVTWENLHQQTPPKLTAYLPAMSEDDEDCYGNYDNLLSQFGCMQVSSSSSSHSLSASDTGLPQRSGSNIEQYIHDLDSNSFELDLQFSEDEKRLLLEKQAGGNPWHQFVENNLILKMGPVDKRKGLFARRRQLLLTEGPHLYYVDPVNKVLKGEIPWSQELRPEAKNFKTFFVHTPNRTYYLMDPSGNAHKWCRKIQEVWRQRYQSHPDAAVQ

[1] = target: T2, PDK1 catalytic domain (50-360) (Homo sapiens, UniProt O15530); test: TNP-ATP/PDK1 fluorescence, conformation of the ATP binding site
T2 construct: the catalytic domain of PDK1 (50-359) produced in SF9 insect cells; His-tag (N, cleaved yes); made in house; host or cells: SF9 insect cells (baculovirus)
Protocol: FIG. 5—Modulation of PDK1 conformation by phosphopeptides and small compounds. Effect of P-HM-polypeptides and compound 1 on the emission fluorescence of trinitrophenyl-ATP (TNP-ATP)/PDK1. The fluorescence emission spectra from TNP-ATP were recorded in the presence or absence of P-HM-polypeptides, PIFtide and compound 1. (A) Effect of P-HM-RSK (65 μM) on the fluorescence by TNP-ATP. (B) Effect of compound 1 on the fluorescence emission from TNP-ATP. Fluorescence intensities are expressed as %. […] The effect of P-HM-PKB was identical to that by P-HM-RSK.
The activation of PDK1 by P-HM-polypeptides and small compounds is due to a change in the conformation of the enzyme. We probed the conformation of the ATP binding site in PDK1 by scanning the steady-state fluorescence of TNP-ATP/PDK1, in the presence or absence of P-HM-polypeptides, PIFtide, or small molecular weight compounds. Data were obtained in a Varian Cary Eclipse spectrofluorometer (excitation γ=479 nm; emission scanning, γ=500-600 nm; excitation slit=10 nm; emission slit=10 nm) at a rate of 200 nm/min, with 150 datapoints/100 nm scanning and 0.3 s averaging time. […] Non-phosphorylated HM-polypeptides increased the fluorescence intensity of TNP-ATP in the absence of PDK1 and were not used in the study. […]

PDK150-360 = target: T3, PDK150-360 (Homo sapiens, UniProt O15530); test: Surface plasmon resonance, PDK1 binding to S6K tail peptides
T3 construct: the catalytic domain of PDK1 comprising residues 50-360
T3 sequence (O15530 50-360): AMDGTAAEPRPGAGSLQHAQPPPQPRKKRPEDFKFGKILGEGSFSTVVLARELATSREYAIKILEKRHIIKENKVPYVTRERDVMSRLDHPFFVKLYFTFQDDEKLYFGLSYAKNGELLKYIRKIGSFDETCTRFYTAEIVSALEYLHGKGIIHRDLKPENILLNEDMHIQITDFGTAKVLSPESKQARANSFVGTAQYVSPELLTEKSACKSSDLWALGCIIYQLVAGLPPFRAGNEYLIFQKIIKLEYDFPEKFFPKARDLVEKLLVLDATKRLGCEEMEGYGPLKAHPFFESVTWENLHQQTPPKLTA
Protocol: FIG. 21 (A) Aliquots of S6K1 protein from bar 1, 2, 5 and 6 in FIG. 5B were subjected to immunoblotting with phosphorylation site specific Ab against the activation loop or anti-HA Ab. (B) The kinase activity of PKB<143-479, prephosphorylated by PDK1 in the activation loop, was determined in the presence of increasing concentrations of synthetic PRK2 tail peptides encompassing the HM, which were either nonphosphorylated (PIFtide) or phosphorylated at the tail site (pT958-PIFtide). […] (C) The kinase activity of purified PDK1 was determined in the presence of increasing concentrations of synthetic S6K tail peptide (residues 366-395) that was either phosphorylated at T389 (S371/pT389) or phosphorylated at both 5389 and 5371 (pS371/pT389). Kinase activity is expressed as percent, and data are means+/−SD of 3 independent experiments. (D) Synthetic S371/pT389 S6K tail peptide and pS371/pT389 S6K tail peptide were biotinylated and used to coat streptavidin Sensor Chips. PDK150-360 was injected at different concentrations (0.05-5.4 mM) onto the peptide coated chips. In the inserts, the kinetic constants were obtained by fitting the data to a hyperbola using kaleidagraph software. Representative results from one of several experiments are shown.
BiaCore analysis was performed as described in Biondi et al. (2000). […]

Substance	increase of PDK1 stability to temperature (PDK1)	effect on TNP-ATP/PDK1 fluorescence (in words) ([1]; 40 μM TNP-ATP, 15 μM PDK1)	Emax ([1]; at 10 times the value of its Kd for PDK1, read-out: maximal effect on TNP-ATP fluorescence intensity)	binding of PDK1 to tail peptide (in words) (PDK150-360)
REPRILSEEEQEMFRDFDYIADWC [PIFtide, reference compound]	10 °C	decreased the intensity	65%	–
S371/pT389: synthetic S6K1 tail peptide (residues 366-395) phosphorylated in the HM	–	–	–	bound equally well
